Test results: patent US8969554B2, “6-acyl-1,2,4-triazine-3,5-dione derivative and herbicides” (Kumiai Chemical Industry Co., Ltd., priority 2010, dated 2015)

What was measured:
Assay type in all cases: in vivo
A. retroflexus [1] = test: Herbicidal activity by field soil treatment (Test example 2); parameters: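 index 0 to 10 in 10% steps of herbicidal effect with 10 meaning complete death and 0 below 10%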; conditions: 1000 g effective component per hectare, day 21 after the treatment
Procedure, shortened: (§1)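 Seeds were sown in field soil in 80 cm^2 pots and covered with soil. A water-diluted wettable powder was then sprayed onto the soil surface at 1000 liters per hectare, delivering 1000 g active ingredient per hectare. Plants grew in a greenhouse, and herbicidal effect was scored against set criteria 21 days after treatment.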

Indian millet [2] = test: as above; parameters: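 index 0 to 10 in 10% steps of herbicidal effect with 10 meaning complete death and 0 below 10%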; conditions: 1000 g effective component per hectare, day 21 after the treatment
Procedure, shortened: as §1

Setaria viridis = test: Herbicidal activity by field foliage treatment (Test example 3); conditions: 1000 g effective component per hectare, day 14 after the treatment;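 also: index 0 to 10 in 10% steps of herbicidal effect with 10 meaning complete death and 0 below 10%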
Description: Test example 3 Test for Determining Herbicidal Activity by Field Foliage Treatment A 80 cm^2 wide plastic pot was filled with a field soil and seeds of each of Indian millet and A. retroflexus were sowed and then incubated for 2 weeks in a green house. The wettable powder produced with reference to the Formulation example 1 was diluted water, and applied from the air to entire body of the plant as foliage treatment by using a small sprayer in an amount of 1000 liters per hectare so that the effective component is 1000 g per hectare. After that, the plants were cultivated in a greenhouse, and on day 14 after the treatment, evaluation was made by the criteria described in Table 72 for determining the herbicidal effects.

Echinochloa crus-galli [3] = test: as above; parameters: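 index 0 to 10 in 10% steps of herbicidal effect with 10 meaning complete death and 0 below 10%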; conditions: 1000 g effective component per hectare, day 14 after the treatment
Procedure, shortened: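 Potted field-soil plants grown 2 weeks in a greenhouse were sprayed over the whole foliage with diluted wettable powder at 1000 L/ha, delivering 1000 g active ingredient per hectare. Herbicidal effect scored by visual criteria 14 days after treatment.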

Echinochloa oryzicola = test: Herbicidal activity by paddy field soil treatment (Test Example 1); parameters: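 index 0 to 10 in 10% steps of herbicidal effect with 10 meaning complete death and 0 below 10%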; conditions: 1000 g of effective component per hectare, evaluated on day 21 after the treatment, criteria of Table 72
Procedure, shortened: (§2)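 Seeds were sown in puddled paddy soil in pots flooded to 3 cm water depth; the next day a water-diluted wettable powder was applied to the water surface at 1000 g active ingredient/ha. Plants were grown in a greenhouse and herbicidal effect scored by graded criteria on day 21 after treatment.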

Monochoria vaginalis = test: as above; parameters: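 index 0 to 10 in 10% steps of herbicidal effect with 10 meaning complete death and 0 below 10%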; conditions: 1000 g of effective component per hectare, evaluated on day 21 after the treatment, criteria of Table 72
Procedure, shortened: as §2

Scirpus juncoides Rocxb. = test: as above; parameters: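 index 0 to 10 in 10% steps of herbicidal effect with 10 meaning complete death and 0 below 10%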; conditions: applied on water surface, 1000 g of effective component per hectare, day 21 after the treatment
Procedure, shortened: as §2

A. retroflexus [4] = test: Herbicidal activity by field foliage treatment (Test example 3); parameters: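 index 0 to 10 in 10% steps of herbicidal effect with 10 meaning complete death and 0 below 10%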; conditions: 1000 g effective component per hectare, day 14 after the treatment
Procedure, shortened: (§3)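 Plants were grown from seed in field soil in a greenhouse for 2 weeks, then sprayed over the whole foliage with a water-diluted wettable powder at 1000 L/ha spray volume, delivering 1000 g active ingredient per hectare. Herbicidal effect was scored on day 14 after treatment.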

Indian millet [5] = test: as above; parameters: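 index 0 to 10 in 10% steps of herbicidal effect with 10 meaning complete death and 0 below 10%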; conditions: 1000 g effective component per hectare, day 14 after the treatment
Procedure, shortened: as §3

Echinochloa crus-galli [6] = test: Herbicidal activity by field soil treatment (Test example 2); parameters: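 index 0 to 10 in 10% steps of herbicidal effect with 10 meaning complete death and 0 below 10%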; conditions: 1000 g effective component per hectare, day 21 after the treatment
Procedure, shortened: as §1

SMILES | herbicidal effect index, Amaranthus retroflexus (A. retroflexus [1]) | herbicidal effect index, Abutilon theophrasti (Indian millet [2]) | herbicidal effect index, Setaria viridis (Setaria viridis) | herbicidal effect index, Echinochloa crus-galli (Echinochloa crus-galli [3]) | Herbicidal effects index number, Echinochloa oryzicola (Echinochloa oryzicola) | Herbicidal effects index number, Monochoria vaginalis (Monochoria vaginalis) | herbicidal effect index, S. juncoides Rocxb. (Scirpus juncoides Rocxb.) | herbicidal effect index, Amaranthus retroflexus (A. retroflexus [4]) | herbicidal effect index, Abutilon theophrasti (Indian millet [5]) | herbicidal effect index, Echinochloa crus-galli (Echinochloa crus-galli [6])
Cc1cc(Cl)cc(-n2c(=O)c(C(=O)C3=C(O)CCCC3=O)nn(C)c2=O)c1 [I-126] | 10 | 10 | 7 | 9 | 10 | 10 | 10 | 10 | 9 | 
O=C1CCCC(O)=C1C(=O)c1nn(C(F)F)c(=O)n(-c2ccccc2)c1=O [I-261] |  | 10 | 7 |  | 8 | 10 | 8 | 10 | 10 | 
Cn1nc(C(=O)C2=C(O)CCCC2=O)c(=O)n(-c2ccccc2)c1=S [I-263] | 10 | 8 | 9 | 9 | 10 | 10 | 10 | 10 | 10 | 
CC(=O)Cn1c(=O)c(C(=O)C2=C(O)CCCC2=O)nn(C)c1=O [I-328] |  |  | 7 | 7 | 10 | 10 | 10 | 10 | 10 | 
Cn1nc(C(=O)C2=C(O)CCCC2=O)c(=O)n(CC2CCCO2)c1=O (stereo not shown) [I-339] | 10 | 10 |  | 9 | 10 | 10 | 10 | 10 | 10 | 8
COc1cc(-n2c(=O)c(C(=O)C3=C(O)CCCC3=O)nn(C)c2=S)cc(OC)c1OC [I-464] | 7 |  | 7 |  | 10 | 10 | 10 | 10 | 10 | 
Cn1nc(C(=O)C2=C(O)CCCC2=O)c(=O)n(CC(=O)C(C)(C)C)c1=O [I-468] | 7 |  | 9 | 9 | 10 | 10 | 10 | 10 | 10 | 
Cn1nc(C(=O)C2=C(O)CCCC2=O)c(=O)n(-c2c(F)c(F)cc(F)c2F)c1=O [I-469] |  |  | 10 | 10 | 10 | 10 | 10 | 10 | 10 | 
CCN(c1ccccc1)n1c(=O)c(C(=O)C2=C(O)CCCC2=O)nn(C)c1=O [I-474] | 10 | 10 |  | 7 | 10 | 10 | 10 | 9 | 9 | 7
CN(c1ccc(F)cc1)n1c(=O)c(C(=O)C2=C(O)CCCC2=O)nn(C)c1=O [I-476] | 10 | 10 |  | 7 | 10 | 10 | 10 | 10 | 9 | 7
O=C1CCCC(O)=C1C(=O)c1nn(CC(F)(F)F)c(=O)n(-c2ccccc2)c1=O [I-477] | 10 | 10 |  | 9 | 10 | 10 | 10 | 10 | 9 | 9
CCON=C(C)Cn1c(=O)c(C(=O)C2=C(O)CCCC2=O)nn(C)c1=O [I-478] | 10 | 10 |  | 8 | 10 | 10 | 9 | 10 | 9 | 9
Cn1nc(C(=O)O)c(=O)n(CC(=O)C(C)(C)C)c1=O [V-362] | 7 |  | 9 | 9 | 10 | 10 | 10 | 10 | 10 | 
Cn1nc(C(=O)O)c(=O)n(-c2c(F)c(F)cc(F)c2F)c1=O [V-363] |  |  | 10 | 10 | 10 | 10 | 10 | 10 | 10 | 
CCN(c1ccccc1)n1c(=O)c(C(=O)O)nn(C)c1=O [V-368] | 10 | 10 |  | 7 | 10 | 10 | 10 | 9 | 9 | 7
CN(c1ccc(F)cc1)n1c(=O)c(C(=O)O)nn(C)c1=O [V-370] | 10 | 10 |  | 7 | 10 | 10 | 10 | 10 | 9 | 7
CCON=C(C)Cn1c(=O)c(C(=O)O)nn(C)c1=O [V-371] | 10 | 10 |  | 8 | 10 | 10 | 9 | 10 | 9 | 9
COc1cc(-n2c(=O)c(C(=O)C3=C(O)C(C)(C)C(=O)C(C)(C)C3=O)nn(C)c2=O)cc(OC)c1OC [VI-97] |  |  | 10 | 7 | 10 | 10 | 10 | 10 | 10 | 
